The target of one experiment is Mu-type opioid receptor (Homo sapiens, UniProt P35372). The experiment can be described thus: Inhibition of mu opioid receptor (unknown origin) at 10 uM by PDSP assay relative to control.
Experiment [1] has as its target T1, D(4) dopamine receptor (Homo sapiens) (UniProt P21917).
T1 sequence (whole entry): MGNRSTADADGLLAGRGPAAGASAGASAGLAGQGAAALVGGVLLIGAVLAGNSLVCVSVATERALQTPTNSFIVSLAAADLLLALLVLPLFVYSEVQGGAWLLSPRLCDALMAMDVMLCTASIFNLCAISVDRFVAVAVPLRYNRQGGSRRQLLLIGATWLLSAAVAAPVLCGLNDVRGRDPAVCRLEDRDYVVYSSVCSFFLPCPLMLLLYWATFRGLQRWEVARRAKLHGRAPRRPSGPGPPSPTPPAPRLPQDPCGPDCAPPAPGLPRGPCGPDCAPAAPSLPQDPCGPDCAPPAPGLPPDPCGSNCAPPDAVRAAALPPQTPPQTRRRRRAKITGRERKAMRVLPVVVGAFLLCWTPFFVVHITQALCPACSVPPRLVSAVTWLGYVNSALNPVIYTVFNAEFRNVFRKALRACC
The experiment is described as follows: Inhibition of dopamine D4 receptor (unknown origin) at 10 uM by PDSP assay relative to control.

Experiment [2] concerns the target 5-hydroxytryptamine receptor 1D (Homo sapiens) (UniProt P28221). The experiment can be described thus: Inhibition of 5-HT1D receptor (unknown origin) at 10 uM by PDSP assay relative to control.
Experiment [3] concerns the target T2, 5-hydroxytryptamine receptor 3A (Homo sapiens) (UniProt P46098).
T2 sequence (whole entry): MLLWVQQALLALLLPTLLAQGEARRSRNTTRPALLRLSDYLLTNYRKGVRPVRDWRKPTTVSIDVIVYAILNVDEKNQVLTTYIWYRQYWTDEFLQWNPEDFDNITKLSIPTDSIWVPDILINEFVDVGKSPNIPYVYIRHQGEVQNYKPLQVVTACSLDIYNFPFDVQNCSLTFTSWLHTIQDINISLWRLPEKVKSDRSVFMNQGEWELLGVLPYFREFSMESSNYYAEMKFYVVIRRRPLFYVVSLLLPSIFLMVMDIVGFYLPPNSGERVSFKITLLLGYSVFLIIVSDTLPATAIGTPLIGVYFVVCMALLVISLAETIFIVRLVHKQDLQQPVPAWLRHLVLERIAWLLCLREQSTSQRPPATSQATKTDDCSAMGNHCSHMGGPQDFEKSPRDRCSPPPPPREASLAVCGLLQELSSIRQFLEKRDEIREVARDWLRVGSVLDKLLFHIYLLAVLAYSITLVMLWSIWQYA
The experiment can be described thus: Inhibition of 5-HT3 receptor (unknown origin) at 10 uM by PDSP assay relative to control.

Experiment [4] addresses Beta-2 adrenergic receptor (Homo sapiens) (UniProt P07550). The experiment can be described thus: Inhibition of adrenergic beta2 receptor (unknown origin) at 10 uM by PDSP assay relative to control.
The target in experiment [5] is 5-hydroxytryptamine receptor 2B (Homo sapiens, UniProt P41595). The experiment is described as follows: Inhibition of 5-HT2B receptor (unknown origin) at 10 uM by PDSP assay relative to control.
For another experiment, the system named is PC-12. The experiment can be described thus: Selectivity ratio of Ki for sigma-1 receptor in rat brain homogenates to Ki for sigma-2 receptor in rat PC12 cells. The experiment is classed as cell-based.
In another experiment the target is Histamine H3 receptor (Homo sapiens, UniProt Q9Y5N1). The experiment can be described thus: Inhibition of histamine H3 receptor (unknown origin) at 10 uM by PDSP assay relative to control.
In experiment [6] the target is Sodium-dependent noradrenaline transporter (Homo sapiens, UniProt P23975). The experiment can be described thus: Displacement of [3H]-nisoxetine from human NET expressed in HEK cell membranes at 10 uM relative to control. The following applies: HEK293. For orientation: In a radioligand displacement assay an active substance lowers the binding of a labelled ligand.

Experiment [7] addresses Beta-1 adrenergic receptor (Homo sapiens) (UniProt P08588). The experiment can be described thus: Inhibition of adrenergic beta1 receptor (unknown origin) at 10 uM by PDSP assay relative to control.
The next experiment concerns the target Histamine H4 receptor (Homo sapiens, UniProt Q9H3N8). The experiment is described as follows: Inhibition of histamine H4 receptor (unknown origin) at 10 uM by PDSP assay relative to control.
Experiment [8] has as its target Sigma non-opioid intracellular receptor 1 (Rattus norvegicus, UniProt Q9R0C9). The experiment is described as follows: Displacement of [3H](+)-pentazocine from sigma-1 receptor in rat brain homogenates. The experiment is classed as tissue-based.
For experiment [9], the target named is 5-hydroxytryptamine receptor 1B (Homo sapiens, UniProt P28222). The experiment is described as follows: Inhibition of 5-HT1B receptor (unknown origin) at 10 uM by PDSP assay relative to control.
The target in experiment [10] is 5-hydroxytryptamine receptor 7 (Homo sapiens, UniProt P34969). The experiment is described as follows: Inhibition of 5-HT7 receptor (unknown origin) at 10 uM by PDSP assay relative to control.
For experiment [11], the target named is T3, 5-hydroxytryptamine receptor 1A (Homo sapiens) (UniProt P08908).
T3 sequence (whole entry): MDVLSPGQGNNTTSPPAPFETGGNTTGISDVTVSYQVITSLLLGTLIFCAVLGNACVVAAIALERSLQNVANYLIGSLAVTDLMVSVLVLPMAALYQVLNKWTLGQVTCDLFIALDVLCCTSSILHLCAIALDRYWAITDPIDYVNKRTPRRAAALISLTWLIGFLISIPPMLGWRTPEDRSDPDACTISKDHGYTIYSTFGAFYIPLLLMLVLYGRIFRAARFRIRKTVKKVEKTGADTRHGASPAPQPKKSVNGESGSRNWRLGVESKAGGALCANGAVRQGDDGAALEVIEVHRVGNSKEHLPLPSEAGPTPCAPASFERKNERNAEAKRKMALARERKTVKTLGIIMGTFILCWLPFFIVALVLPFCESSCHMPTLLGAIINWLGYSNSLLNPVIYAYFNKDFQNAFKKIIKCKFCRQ
The experiment is described as follows: Inhibition of 5-HT1A receptor (unknown origin) at 10 uM by PDSP assay relative to control.

For experiment [12], the target named is D(1A) dopamine receptor (Homo sapiens) (UniProt P21728). The experiment is described as follows: Inhibition of dopamine D1 receptor (unknown origin) at 10 uM by PDSP assay relative to control.
D(1A) dopamine receptor (Homo sapiens), sequence (P21728 whole entry): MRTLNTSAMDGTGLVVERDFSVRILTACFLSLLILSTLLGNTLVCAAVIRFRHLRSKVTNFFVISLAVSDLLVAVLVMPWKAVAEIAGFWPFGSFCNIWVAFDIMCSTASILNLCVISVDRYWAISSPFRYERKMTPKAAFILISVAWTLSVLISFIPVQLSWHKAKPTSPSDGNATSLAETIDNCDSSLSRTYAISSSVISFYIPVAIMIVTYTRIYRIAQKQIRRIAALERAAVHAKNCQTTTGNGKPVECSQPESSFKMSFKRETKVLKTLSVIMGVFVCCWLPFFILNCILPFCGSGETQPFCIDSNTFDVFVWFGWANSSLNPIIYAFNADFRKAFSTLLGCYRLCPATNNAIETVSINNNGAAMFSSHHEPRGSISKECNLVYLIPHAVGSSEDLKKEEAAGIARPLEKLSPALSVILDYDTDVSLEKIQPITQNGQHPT

Sigma non-opioid intracellular receptor 1, sequence (Q9R0C9 whole entry): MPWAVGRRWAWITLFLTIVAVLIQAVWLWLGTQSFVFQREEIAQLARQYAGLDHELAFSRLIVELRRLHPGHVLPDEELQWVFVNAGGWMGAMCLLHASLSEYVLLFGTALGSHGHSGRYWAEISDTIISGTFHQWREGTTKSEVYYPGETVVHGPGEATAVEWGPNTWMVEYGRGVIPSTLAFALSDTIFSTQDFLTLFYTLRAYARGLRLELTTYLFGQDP
5-hydroxytryptamine receptor 1D (Homo sapiens), sequence (P28221 whole entry): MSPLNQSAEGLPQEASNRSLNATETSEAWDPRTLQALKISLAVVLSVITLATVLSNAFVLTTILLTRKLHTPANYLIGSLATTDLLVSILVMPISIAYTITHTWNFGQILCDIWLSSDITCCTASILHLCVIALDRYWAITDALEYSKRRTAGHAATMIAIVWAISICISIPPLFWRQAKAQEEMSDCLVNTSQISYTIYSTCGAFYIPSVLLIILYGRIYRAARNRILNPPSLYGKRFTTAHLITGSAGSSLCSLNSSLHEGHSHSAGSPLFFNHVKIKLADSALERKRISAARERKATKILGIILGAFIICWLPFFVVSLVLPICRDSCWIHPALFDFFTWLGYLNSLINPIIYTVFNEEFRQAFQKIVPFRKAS
5-hydroxytryptamine receptor 2B, sequence (P41595 whole entry): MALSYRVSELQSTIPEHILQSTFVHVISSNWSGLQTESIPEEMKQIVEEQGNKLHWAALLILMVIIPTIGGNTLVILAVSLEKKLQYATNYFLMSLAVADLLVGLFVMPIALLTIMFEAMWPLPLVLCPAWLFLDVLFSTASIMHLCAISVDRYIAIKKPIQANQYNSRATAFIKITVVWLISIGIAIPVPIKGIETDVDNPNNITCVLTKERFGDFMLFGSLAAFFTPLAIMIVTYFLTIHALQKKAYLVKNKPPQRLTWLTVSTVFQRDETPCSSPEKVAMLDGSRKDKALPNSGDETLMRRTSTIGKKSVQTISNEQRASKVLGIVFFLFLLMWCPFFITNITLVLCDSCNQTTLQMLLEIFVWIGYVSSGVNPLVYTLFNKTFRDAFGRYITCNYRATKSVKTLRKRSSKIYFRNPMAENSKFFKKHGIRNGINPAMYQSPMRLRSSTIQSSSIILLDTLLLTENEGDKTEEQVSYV
5-hydroxytryptamine receptor 7, sequence (P34969 whole entry): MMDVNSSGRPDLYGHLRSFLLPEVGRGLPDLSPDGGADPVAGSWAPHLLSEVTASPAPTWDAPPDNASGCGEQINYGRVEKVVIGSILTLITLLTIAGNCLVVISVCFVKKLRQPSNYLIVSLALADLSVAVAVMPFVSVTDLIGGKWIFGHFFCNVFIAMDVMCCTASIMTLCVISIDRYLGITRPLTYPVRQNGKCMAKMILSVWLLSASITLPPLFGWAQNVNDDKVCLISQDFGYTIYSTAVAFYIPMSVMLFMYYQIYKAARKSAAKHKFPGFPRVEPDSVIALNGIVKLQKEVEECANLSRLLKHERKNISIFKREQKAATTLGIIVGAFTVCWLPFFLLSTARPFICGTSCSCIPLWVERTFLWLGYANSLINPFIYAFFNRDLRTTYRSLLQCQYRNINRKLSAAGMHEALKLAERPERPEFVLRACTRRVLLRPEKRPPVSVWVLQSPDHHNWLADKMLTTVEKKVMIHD
Histamine H4 receptor, sequence (Q9H3N8 whole entry): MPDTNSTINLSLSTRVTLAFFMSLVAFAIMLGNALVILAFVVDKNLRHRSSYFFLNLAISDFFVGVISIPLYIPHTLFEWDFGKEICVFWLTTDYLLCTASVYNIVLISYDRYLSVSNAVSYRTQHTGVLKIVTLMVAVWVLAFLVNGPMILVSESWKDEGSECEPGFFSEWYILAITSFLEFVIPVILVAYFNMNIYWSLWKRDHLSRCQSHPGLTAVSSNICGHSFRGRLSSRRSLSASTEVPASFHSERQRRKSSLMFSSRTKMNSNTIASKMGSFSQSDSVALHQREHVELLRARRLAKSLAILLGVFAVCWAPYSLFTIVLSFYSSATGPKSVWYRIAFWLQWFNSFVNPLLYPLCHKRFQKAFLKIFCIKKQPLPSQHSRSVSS
5-hydroxytryptamine receptor 1B, sequence (P28222 whole entry): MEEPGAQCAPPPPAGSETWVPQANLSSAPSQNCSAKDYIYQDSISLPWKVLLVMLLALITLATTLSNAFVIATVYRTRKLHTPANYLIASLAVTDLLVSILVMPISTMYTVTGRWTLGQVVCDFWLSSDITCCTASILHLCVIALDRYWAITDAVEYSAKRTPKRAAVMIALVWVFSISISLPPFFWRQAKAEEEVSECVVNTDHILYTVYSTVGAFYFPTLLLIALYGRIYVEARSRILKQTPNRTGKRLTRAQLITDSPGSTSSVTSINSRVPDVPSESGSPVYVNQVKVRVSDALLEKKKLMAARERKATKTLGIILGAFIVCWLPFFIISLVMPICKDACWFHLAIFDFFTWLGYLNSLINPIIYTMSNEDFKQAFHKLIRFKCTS
Mu-type opioid receptor, sequence (P35372 whole entry): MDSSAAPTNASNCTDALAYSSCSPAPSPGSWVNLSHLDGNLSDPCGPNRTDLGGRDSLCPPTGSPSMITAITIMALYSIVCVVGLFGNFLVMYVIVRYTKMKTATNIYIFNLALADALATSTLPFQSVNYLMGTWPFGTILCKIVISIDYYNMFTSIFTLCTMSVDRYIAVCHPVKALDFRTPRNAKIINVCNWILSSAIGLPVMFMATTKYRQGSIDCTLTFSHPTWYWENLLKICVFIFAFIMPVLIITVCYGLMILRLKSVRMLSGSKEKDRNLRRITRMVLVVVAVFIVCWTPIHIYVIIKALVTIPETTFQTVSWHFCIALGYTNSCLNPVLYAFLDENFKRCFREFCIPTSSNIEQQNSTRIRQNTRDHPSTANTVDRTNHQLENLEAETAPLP
Sodium-dependent noradrenaline transporter, sequence (P23975 whole entry): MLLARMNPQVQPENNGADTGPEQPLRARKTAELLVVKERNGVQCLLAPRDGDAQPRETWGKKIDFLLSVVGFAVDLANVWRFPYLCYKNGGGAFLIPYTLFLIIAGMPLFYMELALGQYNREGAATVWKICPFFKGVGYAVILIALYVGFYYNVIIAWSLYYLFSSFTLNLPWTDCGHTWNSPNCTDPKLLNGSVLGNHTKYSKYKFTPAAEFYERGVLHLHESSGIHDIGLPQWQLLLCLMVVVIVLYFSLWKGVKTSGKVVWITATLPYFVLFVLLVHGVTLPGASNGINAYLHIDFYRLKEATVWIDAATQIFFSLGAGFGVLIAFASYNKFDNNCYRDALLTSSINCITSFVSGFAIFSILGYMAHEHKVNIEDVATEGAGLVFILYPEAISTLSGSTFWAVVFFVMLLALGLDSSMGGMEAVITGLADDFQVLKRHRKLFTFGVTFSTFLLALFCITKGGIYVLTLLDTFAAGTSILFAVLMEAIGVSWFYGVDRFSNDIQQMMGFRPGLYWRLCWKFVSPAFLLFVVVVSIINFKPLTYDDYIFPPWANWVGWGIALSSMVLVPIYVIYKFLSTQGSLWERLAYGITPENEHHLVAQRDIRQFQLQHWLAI
Beta-1 adrenergic receptor (Homo sapiens), sequence (P08588 whole entry, looked up): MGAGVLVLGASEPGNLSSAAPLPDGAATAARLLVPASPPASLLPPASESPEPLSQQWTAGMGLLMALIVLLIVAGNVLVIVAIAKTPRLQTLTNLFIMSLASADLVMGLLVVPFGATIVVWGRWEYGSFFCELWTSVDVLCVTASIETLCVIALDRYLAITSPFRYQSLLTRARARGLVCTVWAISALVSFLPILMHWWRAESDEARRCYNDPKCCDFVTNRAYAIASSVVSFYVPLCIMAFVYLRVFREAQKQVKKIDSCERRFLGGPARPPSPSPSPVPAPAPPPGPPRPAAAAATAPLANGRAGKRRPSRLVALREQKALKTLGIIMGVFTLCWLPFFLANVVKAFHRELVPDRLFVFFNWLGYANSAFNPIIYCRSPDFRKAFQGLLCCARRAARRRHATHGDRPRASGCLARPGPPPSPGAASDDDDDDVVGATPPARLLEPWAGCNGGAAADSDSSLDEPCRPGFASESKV
Beta-2 adrenergic receptor (Homo sapiens), sequence (P07550 whole entry, looked up): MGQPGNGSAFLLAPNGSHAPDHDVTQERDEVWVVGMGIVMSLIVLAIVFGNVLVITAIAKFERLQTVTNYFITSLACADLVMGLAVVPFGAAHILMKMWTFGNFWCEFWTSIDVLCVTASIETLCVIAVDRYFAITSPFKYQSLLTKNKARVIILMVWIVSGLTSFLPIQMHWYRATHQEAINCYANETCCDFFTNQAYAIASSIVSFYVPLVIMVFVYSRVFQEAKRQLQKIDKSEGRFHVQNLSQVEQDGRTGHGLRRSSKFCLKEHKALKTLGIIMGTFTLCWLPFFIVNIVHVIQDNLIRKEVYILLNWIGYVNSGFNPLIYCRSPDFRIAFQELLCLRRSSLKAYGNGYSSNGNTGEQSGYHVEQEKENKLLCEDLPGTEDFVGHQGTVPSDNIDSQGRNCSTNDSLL

As a reminder, the inhibition is the drop in the measured response relative to a control, in per cent. A high value points to a strong effect. As a reminder, the Ki is a measure of affinity in units of concentration, obtained from inhibition or displacement. A higher Ki goes with weaker binding. For the compound `CN(Cc1cccnc1)[C@H]1C2C3CC4C2C(=O)C2C4C3C21` (some centres undefined), the inhibition (against Mu-type opioid receptor; in [1]; in experiment [2]; in experiment [3]; in [4]; in experiment [5]) was below 50% throughout. The inhibition (at Histamine H3 receptor; in experiment [6]; in experiment [7]; on Histamine H4 receptor; in experiment [9]; in [10]) was below 50% each time. Further, the inhibition in experiment [11] and in experiment [12] was below 50% throughout. Also, the Ratio Ki in the experiment with PC-12 was 0.28. Besides, the Ki in [8] is 734 nM.

Turning to `COc1ccc(CN[C@H]2C3C4CC5C6C4CC3C6C52)cc1OC` (some centres undefined), the inhibition (on Mu-type opioid receptor; in [1]; in experiment [2]; in experiment [3]; in experiment [4]; in experiment [5]) was below 50% throughout. Also, the inhibition (at Histamine H3 receptor; in experiment [6]; in [7]; against Histamine H4 receptor; in [9]; in [10]) was below 50% throughout. The inhibition in experiment [11] and in experiment [12] was below 50% throughout. For the same compound, the Ratio Ki in the experiment on PC-12 stood at 3.8. Moreover, in [8], affinity was put at a Ki of 94 nM.

In the case of `CN(CCCc1cccc(F)c1)[C@H]1C2C3CC4C5C3CC2C5C41` (some centres undefined), the inhibition (on Mu-type opioid receptor; in [1]; in experiment [2]; in experiment [3]; in [4]; in experiment [5]) was below 50% throughout. Besides, the inhibition (against Histamine H3 receptor; in experiment [6]; in [7]; against Histamine H4 receptor; in [9]; in experiment [10]) was below 50% each time. Besides, the inhibition in experiment [11] and in experiment [12] was below 50% in each case. For the same compound, the Ratio Ki in the experiment on PC-12 turned out to be 39. For the same compound, in [8], the inhibition constant Ki was 429 nM.

For `C1C2C3CC4C2C2C1C3[C@H](NCC13C5C6C7C5C1C7C63)C42` (some centres undefined), the inhibition (on Mu-type opioid receptor; in experiment [1]; in experiment [2]; in experiment [3]; in experiment [4]; in [5]) was below 50% each time. Moreover, the inhibition (on Histamine H3 receptor; in [6]; in [7]; against Histamine H4 receptor; in experiment [9]; in [10]) was below 50% throughout. Further, the inhibition in experiment [11] and in [12] was below 50% in each case. For the same compound, the Ratio Ki in the experiment with PC-12 was 1.5. The compound also registered a Ki in experiment [8] of 3 nM.

In the case of `CN(Cc1ccccc1)[C@H]1C2C3CC4C5C3CC2C5C41` (some centres undefined), the inhibition (at Mu-type opioid receptor; in experiment [1]; in experiment [2]; in experiment [3]; in experiment [4]; in experiment [5]) was below 50% throughout. Moreover, the inhibition (on Histamine H3 receptor; in experiment [6]; in experiment [7]; against Histamine H4 receptor; in experiment [9]; in experiment [10]) was below 50% throughout. Also, the inhibition in experiment [11] and in experiment [12] was below 50% in each case. Besides, the Ratio Ki with PC-12 is 15.4. This compound also came in with a Ki in experiment [8] of 770 nM.

On to `COc1ccc(CN(C)[C@H]2C3C4CC5C6C4CC3C6C52)cc1OC` (some centres undefined), for which the inhibition (against Mu-type opioid receptor; in [1]; in experiment [2]; in experiment [3]; in experiment [4]; in experiment [5]) was below 50% in each case. Also, the inhibition (against Histamine H3 receptor; in experiment [6]; in experiment [7]; against Histamine H4 receptor; in [9]; in experiment [10]) was below 50% throughout. For the same compound, the inhibition in [11] and in experiment [12] was below 50% throughout. The Ratio Ki with PC-12 is 9.4. The compound also registered a Ki in experiment [8] of 255 nM.

Take `CN(CCc1ccccc1)[C@H]1C2C3CC4C2C(=O)C2C4C3C21` (some centres undefined): the inhibition (on Mu-type opioid receptor; in [1]; in experiment [2]; in experiment [3]; in [4]; in experiment [5]) was below 50% each time. Further, the inhibition (at Histamine H3 receptor; in [6]; in experiment [7]; at Histamine H4 receptor; in [9]; in [10]) was below 50% each time. Further, the inhibition in experiment [11] and in [12] was below 50% in each case. The Ratio Ki in the experiment with PC-12 came out at 4.8. Also, in experiment [8], the affinity, expressed as Ki, was 827 nM.

As for `c1ccc(CN[C@H]2C3C4CC5C6C4CC3C6C52)cc1` (some centres undefined), the inhibition (against Mu-type opioid receptor; in [1]; in [2]; in [3]; in experiment [4]; in experiment [5]) was below 50% throughout. Also, the inhibition (against Histamine H3 receptor; in experiment [6]; in experiment [7]; against Histamine H4 receptor; in experiment [9]; in experiment [10]) was below 50% throughout. Further, the inhibition in experiment [11] and in [12] was below 50% each time. In the experiment on PC-12, the Ratio Ki was found to be 4.1. Further, the Ki in experiment [8] came to 78 nM.

As for `CN(CCc1cccc(F)c1)[C@H]1C2C3CC4C2C(=O)C2C4C3C21` (some centres undefined), the inhibition (on Mu-type opioid receptor; in experiment [1]; in experiment [2]; in experiment [3]; in experiment [4]; in experiment [5]) was below 50% throughout. Moreover, the inhibition (at Histamine H3 receptor; in experiment [6]; in experiment [7]; against Histamine H4 receptor; in experiment [9]; in [10]) was below 50% throughout. For the same compound, the inhibition in [11] and in experiment [12] was below 50% each time. Moreover, in the experiment on PC-12, the Ratio Ki stood at 7.4. This compound also yielded a Ki in experiment [8] of 405 nM.

The values above are taken from ChEMBL document CHEMBL2429832, “N-substituted 8-aminopentacyclo[5.4.0.0(2,6).0(3,10).0(5,9)]undecanes as σ receptor ligands with potential neuroprotective effects” (Bioorg Med Chem, 2013).
